The source of these data is ChEMBL document CHEMBL1156904, “Part II: piperazinyl-glutamate-pyridines as potent orally bioavailable P2Y12 antagonists for inhibition of platelet aggregation” (Bioorg Med Chem Lett, 2010).

One data set concerns the target P2Y purinoceptor 12 (Homo sapiens, UniProt Q9H244). Briefly: Inhibition of human P2Y12 receptor expressed in CHO cells.
Data set [1] in a line: Antiplatelet activity in human platelet rich plasma assessed as inhibition of ADP-induced platelet aggregation. It counts as functional.
Data set [2] in a line: Antiplatelet activity in human platelet rich plasma assessed as inhibition of ADP-induced platelet aggregation relative to AZD-6140. It counts as functional.
A short description of data set [3]: Metabolic stability in rat microsomes. It counts as ADME, Microsome.
A short description of data set [4]: Metabolic stability in human microsomes. It counts as ADME, Microsome.

pIC50, pKi: −log10 of the molar value.

Sequence of P2Y purinoceptor 12 (Q9H244 whole entry): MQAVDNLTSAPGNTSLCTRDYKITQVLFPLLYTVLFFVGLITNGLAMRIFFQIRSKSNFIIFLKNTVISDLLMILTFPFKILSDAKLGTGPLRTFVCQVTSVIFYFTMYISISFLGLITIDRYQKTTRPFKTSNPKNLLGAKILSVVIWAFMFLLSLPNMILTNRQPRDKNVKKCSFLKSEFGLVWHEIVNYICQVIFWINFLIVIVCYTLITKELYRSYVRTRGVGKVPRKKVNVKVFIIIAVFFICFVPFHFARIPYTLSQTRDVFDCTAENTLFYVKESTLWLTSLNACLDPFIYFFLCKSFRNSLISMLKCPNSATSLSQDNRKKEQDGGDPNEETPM

In turn, `CCCCCOC(=O)N1CCN(C(=O)[C@H](CCC(=O)O)NC(=O)c2cc(N3CCCC(C(=O)N(CC)CC)C3)cc(-c3ccccc3)n2)CC1` (some centres undefined) showed a pKi at P2Y purinoceptor 12 of 7.59. In addition, the pIC50 in data set [1] is 5.11. The “fold change (FC)” value in data set [2] came out at 4.2. Also, the Stability entry in data set [3] and in data set [4] was “Stable” throughout.

`CCCCCOC(=O)N1CCN(C(=O)[C@H](CCC(=O)O)NC(=O)c2cc(N3CCN(CCO)CC3)cc(-c3ccccc3)n2)CC1` gave a pKi on P2Y purinoceptor 12 of 7.89. The negative-log IC50 (pIC50) in data set [1] is 5.74. In addition, in data set [2], the “fold change (FC)” value was 1.1. Further, the Stability result in data set [3] and in data set [4] was “Stable” throughout.

`CCCCCOC(=O)N1CCN(C(=O)[C@H](CCC(=O)O)NC(=O)c2cc(N3CCNCC3)cc(-c3ccccc3)n2)CC1` had a pKi on P2Y purinoceptor 12 of 8.19. Moreover, in data set [1], the pIC50 was 5.72. Besides, in data set [2], the “fold change (FC)” value stood at 2.3. For the same compound, the Stability result in data set [3] and in data set [4] was “Stable” in each case.

At P2Y purinoceptor 12, `CCCCCOC(=O)N1CCN(C(=O)[C@H](CCC(=O)O)NC(=O)c2cc(N3CCN(C(=O)N(C)C)CC3)cc(-c3ccccc3)n2)CC1` had a pKi of 8.23. The pIC50 in data set [1] was 5.52. In data set [2], the “fold change (FC)” value is recorded as 3.6. Moreover, the Stability entry in data set [3] and in data set [4] was “Stable” each time.

On P2Y purinoceptor 12, `CCCCCCOC(=O)N1CCN(C(=O)[C@H](CCC(=O)O)NC(=O)c2cc(N3CCC(C(=O)N(CC)CC)CC3)cc(-c3ccccc3)n2)CC1` had a pKi of 8.32. Moreover, the pIC50 in data set [1] was 6.09. The “fold change (FC)” value in data set [2] was found to be 1.7. In addition, the Stability entry in data set [3] and in data set [4] was “Stable” each time.

At P2Y purinoceptor 12, `CCCCCOC(=O)N1CCN(C(=O)[C@H](CCC(=O)O)NC(=O)c2cc(N3CC[C@@H](C(=O)N(C)C)C3)cc(-c3ccccc3)n2)CC1` had a pKi of 7.62. For the same compound, the pIC50 in data set [1] was 5.44. The “fold change (FC)” value in data set [2] is on record as 3.8. Further, the Stability entry in data set [3] and in data set [4] was “Stable” in each case.

As to `CCCCCOC(=O)N1CCN(C(=O)[C@H](CCC(=O)O)NC(=O)c2cc(N3CCN(CC(=O)N(C)C)CC3)cc(-c3ccccc3)n2)CC1`, the pKi on P2Y purinoceptor 12 was 8.31. In addition, the pIC50 in data set [1] is 6.16. In addition, the “fold change (FC)” value in data set [2] is recorded as 1.1. In addition, the Stability result in data set [3] and in data set [4] was “Stable” each time.

`CCCCOC(=O)N1CCN(C(=O)[C@H](CCC(=O)O)NC(=O)c2cc(N3CCC(CN4CCCC4)CC3)cc(-c3ccccc3)n2)CC1` had a pKi on P2Y purinoceptor 12 of 8.82. For the same compound, the pIC50 in data set [1] is 6.10. For the same compound, the “fold change (FC)” value in data set [2] was 1. For the same compound, the Stability result in data set [3] and in data set [4] was “Stable” in each case.

With `CCCCCOC(=O)N1CCN(C(=O)[C@H](CCC(=O)O)NC(=O)c2cc(N3CCC(CNC)CC3)cc(-c3ccccc3)n2)CC1`, the negative logarithm of the Ki (pKi) on P2Y purinoceptor 12 was 8.82. The pIC50 in data set [1] was 6.15. In data set [2], the “fold change (FC)” value worked out at 0.99. For the same compound, the Stability entry in data set [3] and in data set [4] was “Stable” each time.

`CCCCCOC(=O)N1CCN(C(=O)C(CCC(=O)O)NC(=O)c2cc(N3CCC(CO)C3)cc(-c3ccccc3)n2)CC1` (mixture of isomers) gave a negative-log Ki (pKi) on P2Y purinoceptor 12 of 7.68. In addition, the pIC50 in data set [1] is 4.54. The “fold change (FC)” value in data set [2] turned out to be 11. Further, the Stability entry in data set [3] and in data set [4] was “Stable” each time.

`CCCCCOC(=O)N1CCN(C(=O)[C@H](CCC(=O)O)NC(=O)c2cc(N3CC(C(=O)NCC)C3)cc(-c3ccccc3)n2)CC1` gave a pKi on P2Y purinoceptor 12 of 8.70. Further, the pIC50 in data set [1] is 5.74. In addition, the “fold change (FC)” value in data set [2] amounted to 1.5. Also, the Stability entry in data set [3] and in data set [4] was “Stable” throughout.

`CCCCCOC(=O)N1CCN(C(=O)[C@H](CCC(=O)O)NC(=O)c2cc(N3CC(CNC)C3)cc(-c3ccccc3)n2)CC1`: at P2Y purinoceptor 12, the negative-log Ki (pKi) is 8.15. Also, the pIC50 in data set [1] was 5.89. Also, the “fold change (FC)” value in data set [2] came to 1.9. For the same compound, the Stability result in data set [3] and in data set [4] was “Stable” throughout.

Compound `CCCCCOC(=O)N1CCN(C(=O)[C@H](CCC(=O)O)NC(=O)c2cc(N3CCC(CNCC)CC3)cc(-c3ccccc3)n2)CC1` showed a pKi at P2Y purinoceptor 12 of 8.82. Moreover, the pIC50 in data set [1] is 6.02. The “fold change (FC)” value in data set [2] is on record as 1.2. Also, the Stability result in data set [3] and in data set [4] was “Stable” in each case.

At P2Y purinoceptor 12, `CCCCCOC(=O)N1CCN(C(=O)[C@H](CCC(=O)O)NC(=O)c2cc(N3CC(C(N)=O)C3)cc(-c3ccccc3)n2)CC1` had a pKi of 9.19. Moreover, the pIC50 in data set [1] was 5.72. For the same compound, the Stability entry in data set [3] and in data set [4] was “Stable” throughout.

On to `CCCCCOC(=O)N1CCN(C(=O)[C@H](CCC(=O)O)NC(=O)c2cc(N3CC[C@H](C(=O)N(C)C)C3)cc(-c3ccccc3)n2)CC1`, for which the pKi on P2Y purinoceptor 12 was 7.59. Further, in data set [1], the pIC50 is 5.52. In data set [2], the “fold change (FC)” value is on record as 4.1. For the same compound, the Stability entry in data set [3] and in data set [4] was “Stable” throughout.

As for `CCCCCOC(=O)N1CCN(C(=O)[C@H](CCC(=O)O)NC(=O)c2cc(N3CCN(CCS(C)(=O)=O)CC3)cc(-c3ccccc3)n2)CC1`, at P2Y purinoceptor 12, the pKi is 8.05. In addition, in data set [1], the pIC50 was 6.17. Moreover, in data set [2], the “fold change (FC)” value turned out to be 0.81. Also, the Stability result in data set [3] and in data set [4] was “Stable” each time.

`CCCOC(=O)N1CCN(C(=O)[C@H](CCC(=O)O)NC(=O)c2cc(N3CCC(C(=O)N(CC)CC)CC3)cc(-c3ccccc3)n2)CC1`: the negative logarithm of the Ki (pKi) on P2Y purinoceptor 12 was 7.92. The pIC50 in data set [1] was 5.70. Besides, the “fold change (FC)” value in data set [2] was 2.3. The Stability entry in data set [3] and in data set [4] was “Stable” in each case.

As for `CCCCCOC(=O)N1CCN(C(=O)[C@H](CCC(=O)O)NC(=O)c2cc(N3CCN(CCCN(C)C)CC3)cc(-c3ccccc3)n2)CC1`, the pKi on P2Y purinoceptor 12 was 8.08. Moreover, the pIC50 in data set [1] is 6.28. Also, the “fold change (FC)” value in data set [2] is recorded as 0.72. Further, the Stability result in data set [3] and in data set [4] was “Stable” throughout.

Turning to `CCCCCOC(=O)N1CCN(C(=O)[C@H](CCC(=O)O)NC(=O)c2cc(N3CC[C@H](C(=O)N4CCCC4)C3)cc(-c3ccccc3)n2)CC1`, on P2Y purinoceptor 12, the pKi was 8.77. Also, in data set [1], the pIC50 is 5.59. For the same compound, the “fold change (FC)” value in data set [2] is listed as 2.8. For the same compound, the Stability result in data set [3] and in data set [4] was “Stable” in each case.

`CCCCCOC(=O)N1CCN(C(=O)[C@H](CCC(=O)O)NC(=O)c2cc(N3CCN(CC(=O)N4CCCC4)CC3)cc(-c3ccccc3)n2)CC1` gave a pKi at P2Y purinoceptor 12 of 8.28. The pIC50 in data set [1] was 5.80. For the same compound, the “fold change (FC)” value in data set [2] stood at 2.2. Also, the Stability result in data set [3] and in data set [4] was “Stable” each time.

At P2Y purinoceptor 12, `CCCCCOC(=O)N1CCN(C(=O)[C@H](CCC(=O)O)NC(=O)c2cc(N3CCCC(CN4CCCC4=O)C3)cc(-c3ccccc3)n2)CC1` (some centres undefined) showed a pKi of 8.00. In addition, the pIC50 in data set [1] was 5.59. In data set [2], the “fold change (FC)” value turned out to be 3.8. Moreover, the Stability entry in data set [3] and in data set [4] was “Stable” in each case.

`CCCCCOC(=O)N1CCN(C(=O)[C@H](CCC(=O)O)NC(=O)c2cc(N3CCN(CC(N)=O)CC3)cc(-c3ccccc3)n2)CC1`: the pKi on P2Y purinoceptor 12 was 8.77. The pIC50 in data set [1] is 6.29. Further, in data set [2], the “fold change (FC)” value turned out to be 1.8. The Stability entry in data set [3] and in data set [4] was “Stable” in each case.

Take `CCCCCOC(=O)N1CCN(C(=O)[C@H](CCC(=O)O)NC(=O)c2cc(N3CCN(CCOCCC)CC3)cc(-c3ccccc3)n2)CC1`: at P2Y purinoceptor 12, the pKi is 8.20. For the same compound, the pIC50 in data set [1] is 5.82. Also, the “fold change (FC)” value in data set [2] is 3.1. Further, the Stability entry in data set [3] and in data set [4] was “Stable” throughout.

With `CCCCCOC(=O)N1CCN(C(=O)[C@H](CCC(=O)O)NC(=O)c2cc(N3CCC(CCN)CC3)cc(-c3ccccc3)n2)CC1`, the pKi on P2Y purinoceptor 12 was 8.55. In data set [1], the pIC50 was 6.07. Besides, the “fold change (FC)” value in data set [2] worked out at 0.66. In addition, the Stability entry in data set [3] and in data set [4] was “Stable” each time.

`CCCCCOC(=O)N1CCN(C(=O)C(CCC(=O)O)NC(=O)c2cc(N3CCC(O)C3)cc(-c3ccccc3)n2)CC1` (mixture of isomers) had a pKi at P2Y purinoceptor 12 of 7.89. For the same compound, the pIC50 in data set [1] was 5.15. For the same compound, the “fold change (FC)” value in data set [2] is 3.9. Moreover, the Stability result in data set [3] and in data set [4] was “Stable” in each case.

`CCCCCOC(=O)N1CCN(C(=O)[C@H](CCC(=O)O)NC(=O)c2cc(N3CC(N4CCOCC4)C3)cc(-c3ccccc3)n2)CC1`: on P2Y purinoceptor 12, the pKi was 8.48. In addition, the pIC50 in data set [1] is 5.85. The Stability result in data set [3] and in data set [4] was “Stable” throughout.

On P2Y purinoceptor 12, `CCCCCOC(=O)N1CCN(C(=O)[C@H](CCC(=O)O)NC(=O)c2cc(N3CC(OC)C3)cc(-c3ccccc3)n2)CC1` had a negative-log Ki (pKi) of 8.70. The pIC50 in data set [1] is below 5.00. The Stability entry in data set [3] and in data set [4] was “Stable” each time.

In turn, `CCCCCOC(=O)N1CCN(C(=O)[C@H](CCC(=O)O)NC(=O)c2cc(N3CCCC(COC)C3)cc(-c3ccccc3)n2)CC1` (some centres undefined) gave a pKi on P2Y purinoceptor 12 of 7.66. Moreover, the negative logarithm of the IC50 (pIC50) in data set [1] was 4.96. In addition, the Stability entry in data set [3] and in data set [4] was “Stable” throughout.

The compound `CCCCCOC(=O)N1CCN(C(=O)[C@H](CCC(=O)O)NC(=O)c2cc(N3CC(N(C)C)C3)cc(-c3ccccc3)n2)CC1` showed a negative logarithm of the Ki (pKi) on P2Y purinoceptor 12 of 8.26. Moreover, the pIC50 in data set [1] was 5.57. For the same compound, the Stability result in data set [3] and in data set [4] was “Stable” throughout.

As for `CCCCCOC(=O)N1CCN(C(=O)[C@H](CCC(=O)O)NC(=O)c2cc(N3CC(C(=O)NC)C3)cc(-c3ccccc3)n2)CC1`, on P2Y purinoceptor 12, the negative-log Ki (pKi) is 8.77. Further, in data set [1], the pIC50 is 5.70. Moreover, the Stability entry in data set [3] and in data set [4] was “Stable” each time.

One may read the pKi as the negative decadic logarithm of the Ki, by convention in mol/L. A word on the pIC50: it is the IC50 on a negative log10 scale, so that one unit is a factor of ten.
